In a melting point compilation (Tetko et al.; mined from patent text by program, amines drawn as free bases though some values may be those of a salt):

Structure (SMILES)	melting point
CS(=O)(=O)c1ccc(-c2cnn(-c3cccc(C(F)(F)F)c3)c(=O)c2-c2ccc(Cl)cc2)cc1	103 to 105 °C
O=CNCC1c2cccc3c2N(CC3)c2ccccc2N1C=O (stereo unspecified)	201 to 202 °C
COCc1nc(N2CCCCC2)ncc1C(=O)OC	89 to 92 °C
S=C(NCCCc1ccccc1)Nc1nccs1	126 to 128 °C
CC(C)(C)OC(=O)NCCN1C(=O)c2ccccc2C1=O	143 to 145 °C
COC[C@H]1CN(c2noc3cc(OS(=O)(=O)C(F)(F)F)ccc23)C(=O)O1	94 °C
Nc1c(C(=O)c2cc(-c3ccccc3)no2)[nH]c2cc(Cl)ccc12	241 to 242 °C
CCN(SN(C)C=Nc1ccc(C)cc1C)c1ccccc1	52 to 53 °C
Clc1ccc(-c2n[nH]cc2Cl)cc1	158 °C
Cc1ccc(NC(=O)N=C2CCCN2C)cc1	136 to 137 °C
NC(=O)CN(CCCCCCNc1nsc2nccn12)S(=O)(=O)c1cccc2ccccc12	141 to 144 °C
NC(=O)CCCCCCCCCCC(=O)O	129 to 131 °C
FC(F)Sc1nnc(-c2ccc(Cl)cc2)s1	74 to 76 °C
CCN1CCCC1CNC(=O)c1c(C)[nH]c2ccccc12 (stereo unspecified)	132 to 135 °C
COC(=O)c1cc(C)ccc1NC(=O)N(C)C	92 °C
Cn1cc(C2=C(c3c4n(c5ccccc35)CCCC4)C(=O)OC2=O)c2ccccc21	276 to 278 °C
CCCc1cc(CCC)n2nc(N3CCN(C(=O)OCC)CC3)nc2n1	130 to 132 °C
COc1cc2c(cc1OC)CN(C(c1ccccc1)c1ccccc1)C2	126 to 128 °C
Cc1ccc2c3c(ccc2n1)OC[C@H](CNCC1CCc2sc4ccc(F)cc4c2C1)O3 (stereo partly specified)	115 to 118 °C
Nc1cc(=O)n(Cc2cccc([N+](=O)[O-])c2)[nH]1	163 °C
COCOc1ccc2cc(C3CCN(C)CC3)[nH]c(=O)c2c1	200 to 202 °C
CC(=O)NCC1CN(c2ccc(N3CCC(=CC#N)C(C)C3)c(F)c2)C(=O)O1 (stereo unspecified)	152 to 153 °C
Cn1c(=O)c(=O)[nH]c2cc(C(F)(F)F)ccc21	255 °C
CCc1cc(N(CC)C(=O)N2CCN(c3cc(C)cc(C)c3)CC2)c(OC)nc1C	84 to 85 °C
CC(C(=O)O)c1cccc2c(-c3ccc(Cl)cc3)nccc12 (stereo unspecified)	200 to 202 °C
C=C(C)CC(NC=O)(C(=O)OCC)C(=O)OCC	72 °C

Structure (SMILES)	melting point
Cc1nnc(-c2ccc3ncn(-c4ccc(OC(F)(F)F)cc4)c3c2)o1	160 to 161 °C
CCOC(=O)N1CCCc2nc3ccccc3c(O)c2C1	285 °C
CCNC(=O)CC1CCN(Cc2cnc3cc(NC(=O)c4ccc(-c5ccc(Cl)cc5)cc4)ccc3c2)CC1	250 °C
CC1(C)CC2(CC(C)(C)C1Cc1ccccc1)C(=O)C(Cc1ccccc1)C(=O)C2Cc1ccccc1 (stereo unspecified)	135 to 136 °C
N#Cc1cccc2nnsc12	114 to 117 °C
CC(C)C1=C(Cl)C(=O)c2ccccc2C1=O	57 to 59 °C
O=C(O)c1nc2cc(-n3cccc3)c([N+](=O)[O-])cc2[nH]c1=O	> 300 °C
CCCCCCCCCCCCCCOCC(CCC(=O)N(C)C)(CCC(=O)N(C)C)COCCCCCCCCCCCCCC	47 to 49 °C
CN1CCC(NC(=O)c2cc(Cl)ccc2F)CC1	143 to 145 °C
C=CCOC(=O)NC(C)(C)c1ccc(-c2nc(Nc3ccc(CCn4ccnc4)cc3)ncc2Cl)cc1	72 to 78 °C
CCc1ccc(C(N)=O)c([N+](=O)[O-])c1	175 °C
Cc1cc(-c2cc(C(F)(F)F)n3ncc(C#N)c3n2)ccc1Cl	216 °C
CCCC(=O)c1ccc2c(c1)C(C)C(=S)N2 (stereo unspecified)	133 to 136 °C
CCC(=O)Nc1ccc(OC)cc1OC	63 to 65 °C
Cc1c(CC(C)(C)C(=O)O)n(Cc2ccc(Cl)cc2)c2ccc(Cl)cc12	142 °C
CC(C)(C)OC(=O)N1CCC(Oc2ccc(C(=O)Cc3ccccn3)cc2)CC1	138 to 140 °C
COC(=O)Cc1cccc(NC(=O)NC2c3cc(C#N)ccc3OC(C)(C)C2O)c1 (stereo unspecified)	72 to 75 °C
CS(=O)(=O)c1c(O)c2cccnc2n(Cc2ccccc2)c1=O	155 °C
Cc1cc(C)c(C(=O)Oc2ccccc2)c(O)c1C	74 °C
CC(C)C(NC(=O)OC(C)(C)C)C(=O)OC1CC(n2cc(C=CBr)c(=O)[nH]c2=O)OC1CCl (stereo unspecified)	87 to 88 °C
[N-]=[N+]=Nc1ccc(-c2ccc(-c3nc(N)nc(N)n3)cc2)cc1	230 °C
CCOC(=O)c1c(N(C(=O)OC(C)(C)C)C(=O)OC(C)(C)C)sc(C)c1C	70 to 78 °C
Cc1cc(-n2cncn2)cc(C=O)c1N	209 to 211 °C
CCOCc1nc2c(N)nc(C)c(C)c2n1CCCNC(=O)N1CCOCC1	140 to 142 °C
O=C(O)Cc1ccc(Sc2ccc(Cl)cc2)cc1	135 to 140 °C
OC1CSC(Oc2cccnc2-c2ccoc2)C(O)C1O (stereo unspecified)	128 °C

Structure (SMILES)	melting point
COc1ccc2c(C=O)c(OCc3ccccc3)ccc2c1Br	214 to 220 °C
CCOC(=O)c1cn(Cc2cccnc2)nc1O	148 to 149 °C
O=C1CSc2nc(Oc3ccc(N4CCNCC4)cc3)ncc2N1	309 to 312 °C
Cc1oc(-c2ccco2)nc1COc1ccc(CCl)cc1Br	125 to 126 °C
COc1cc2c(Nc3ccc(Sc4nccn4C)c(Cl)c3)c(C#N)cnc2cc1-c1ccc(CN2CCOCC2)cc1	260 to 262 °C
Cc1ccc(S(=O)(=O)OCCNC(=O)OC(C)(C)C)cc1	64 to 66 °C
CCNC1=NN(c2cccc(C(F)(F)F)c2)CC1	172 °C
c1ccc2c(c1)c1ccccc1n2-c1ccc2c(c1)Sc1ccc(-n3c4ccccc4c4ccccc43)cc1S2	350 °C
COc1c(C2CCN(CCCCNC(=O)c3sc(-c4ccc(C(F)(F)F)cc4)nc3CO)CC2)ccc2c1CCCC2	179 to 180 °C
O=C(CCCCCCC(=O)c1ccc(F)cc1)c1ccc(F)cc1	123 to 124 °C
CC(=O)Nc1c(C(=O)c2ccccc2)[nH]c2ccc(N)cc12	254 to 256 °C
CC(C)(C)OC(=O)COc1ccc(C(=O)NNC(=O)c2ccc(CNC(=O)OC(C)(C)C)cc2)cc1OCC(=O)OC(C)(C)C	156 to 158 °C
CCCCCn1c(=O)c(-c2ccccc2)c2n(c1=O)CCCS2	100 to 101 °C
CN(Cc1ccc(NC(=O)C2=Cc3cc(-c4ccc(OCC(=O)OC(C)(C)C)cc4)ccc3S(=O)(=O)CC2)cc1)C1CCOCC1	209 to 211 °C
Cc1ccc2c(c1)[nH]c(=O)n2CCCOS(C)(=O)=O	125 °C
CCCCCCc1cnc(-c2ccc(CCCCC)c(F)c2)nc1	30 °C
CN1C(=O)CCC2(C)c3ccc(Sc4ccccc4F)cc3CCC12 (single isomer, unassigned; (+))	100 to 103 °C
COc1cc(OC)c2c3c(C(N)=O)cccc3n(Cc3ccccc3)c2c1	240 to 243 °C
COC(=O)C(=O)c1cc(OC)c(OCCOc2ccc3ccccc3c2)c(OC)c1	69 to 71 °C
Cc1nc(Cl)cc(NN)n1	146 °C
N#Cc1cc2c(c3ccc(=O)[nH]c13)OC(CN=[N+]=[N-])C2 (stereo unspecified)	213 to 215 °C
CCN1C(=O)CC[C@@H]2c3ccc(Cl)cc3CC[C@H]21	108 to 110 °C
CC(C)(C)OC(=O)NC12CCC1CN(c1c(F)cc3c(=O)c(C(=O)O)cn(C4CC4)c3c1F)C2 (stereo unspecified)	211 to 215 °C
O=C(O)COc1ccc(C(=O)NCC2CCN(c3ccncc3)CC2)cc1	84 to 86 °C
CC(=CC(=O)c1cccnc1)N(C)C	62 to 64 °C
COc1cc(/C=C/C(=O)Nc2ccccc2C(=O)O)ccc1OCCN1CCOCC1	195 to 201 °C

Structure (SMILES)	melting point
CCCCNc1ccc2cc(Cl)cnc2c1C#N	89 °C
CCOC(=O)c1ccc2c3ccccc3n(Cc3ccccc3)c2c1C	79 to 80 °C
CCc1cc2c(cc1CC)C(=CC#N)OC2=O	147 to 158 °C
CCOC(=O)C(C)(C#N)c1cccc2c(-c3ccc(Cl)cc3)nccc12 (stereo unspecified)	92 to 93.5 °C
Cc1oc(-c2ccccc2)nc1COc1ccc(Cn2cc(CCC(=O)O)c(OC(C)C)n2)cc1	106 to 107 °C
CCOC(=O)n1c2ccccc2c(=O)n1CSc1ccccc1	87 to 88 °C
O=C(O)c1c(SCCO)c(SCCO)c(SCCO)c(SCCO)c1C(O)=NCCO	152 to 157 °C
C=CCc1cc2c(ccc(=O)n2CC=C(C)C)c(CC=C)c1O	187 to 189 °C
COC(=O)COc1c(Cl)cc(C(=O)CN2CCN(c3ccncc3)CC2)cc1Cl	149 to 150 °C
CSc1ncc2cc(Cc3ccccc3)oc2n1	69 to 72.2 °C
O=C(O)c1cc(NCc2ccc([N+](=O)[O-])cc2)ccc1O	211 to 212 °C
COc1ccc(C2COc3c(ccc(O)c3O)C2)cc1OC (stereo unspecified)	176 °C
CC(C#N)c1ccc(C(=O)c2ccc(Cl)s2)cc1 (stereo unspecified)	90 °C
O=C(OCc1ccccc1)c1ccc(OC(=O)c2ccccc2C(=O)Oc2ccc(C(=O)OCc3ccccc3)cc2)cc1	100 to 103 °C
Cc1c(C2(c3cccs3)CCC(c3ccccc3)(N(C)C)CC2)[nH]c2ccccc12 (stereo unspecified)	202 to 205 °C
Cc1c(Cl)ccc(Br)c1Cl	32 to 33 °C
COc1ccc(-c2nnn(Cc3ccc(Cl)cc3Cl)c2N)cc1	156 to 159 °C
CN(C(=O)C(C)(C)c1cc(C(F)(F)F)cc(C(F)(F)F)c1)c1ccc(Cl)cc1C(=O)c1ccccc1	89 to 91 °C
CC(C)c1cccc2c1C(=O)N(COC(=O)c1c(Cl)ccc(O)c1Cl)S2(=O)=O	78 to 80 °C
O=C(OCc1ccccc1)C1N2C(=O)C(NC(c3ccccc3)(c3ccccc3)c3ccccc3)C2SC12CCN(c1ccccc1)CC2 (stereo unspecified)	200 to 201 °C
O=C(NCCO[N+](=O)[O-])c1ccoc1	80 to 82 °C
CS(=O)(=O)c1ccc(-c2cc(C(=O)CCCO[N+](=O)[O-])nn2C2CCCCC2)cc1	122 to 124 °C
Cc1ccc(-c2nc(O)c(-c3ccccc3)s2)cc1	252 to 255 °C
